Laboratory results: ChEMBL document CHEMBL3991601, “The target landscape of clinical kinase drugs” (Science, 2017)
Active and inactive are the calls of the source. Cut-off read from the data, not from the text of the source, for most assays here: actives have a measured Kd and inactives only a lower limit.

Columns and labels:
[1] = molecular target: Mitogen-activated protein kinase kinase kinase 20 (Homo sapiens, UniProt Q9NYL2)
[2] = molecular target: Serine/threonine-protein kinase 16 (Homo sapiens, UniProt O75716)
[3] = molecular target: Cyclin-dependent kinase 6 (Homo sapiens, UniProt Q00534)
[4] = molecular target: T1, Serine/threonine-protein kinase Nek2 (Homo sapiens, UniProt P51955)
T1 sequence (P51955 whole entry): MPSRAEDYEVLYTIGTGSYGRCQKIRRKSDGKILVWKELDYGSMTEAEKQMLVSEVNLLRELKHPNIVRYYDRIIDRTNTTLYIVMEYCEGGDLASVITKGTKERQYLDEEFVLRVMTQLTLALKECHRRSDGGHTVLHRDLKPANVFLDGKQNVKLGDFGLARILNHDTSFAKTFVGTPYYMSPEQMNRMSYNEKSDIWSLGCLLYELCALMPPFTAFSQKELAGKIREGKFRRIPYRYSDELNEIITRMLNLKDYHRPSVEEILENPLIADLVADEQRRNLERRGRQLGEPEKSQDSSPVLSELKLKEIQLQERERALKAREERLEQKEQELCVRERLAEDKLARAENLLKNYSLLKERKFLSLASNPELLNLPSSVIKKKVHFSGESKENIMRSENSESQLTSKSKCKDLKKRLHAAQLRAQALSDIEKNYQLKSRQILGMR

[5] = molecular target: T2, MAP kinase-activated protein kinase 5 (Homo sapiens, UniProt Q8IW41)
T2 sequence (Q8IW41 whole entry): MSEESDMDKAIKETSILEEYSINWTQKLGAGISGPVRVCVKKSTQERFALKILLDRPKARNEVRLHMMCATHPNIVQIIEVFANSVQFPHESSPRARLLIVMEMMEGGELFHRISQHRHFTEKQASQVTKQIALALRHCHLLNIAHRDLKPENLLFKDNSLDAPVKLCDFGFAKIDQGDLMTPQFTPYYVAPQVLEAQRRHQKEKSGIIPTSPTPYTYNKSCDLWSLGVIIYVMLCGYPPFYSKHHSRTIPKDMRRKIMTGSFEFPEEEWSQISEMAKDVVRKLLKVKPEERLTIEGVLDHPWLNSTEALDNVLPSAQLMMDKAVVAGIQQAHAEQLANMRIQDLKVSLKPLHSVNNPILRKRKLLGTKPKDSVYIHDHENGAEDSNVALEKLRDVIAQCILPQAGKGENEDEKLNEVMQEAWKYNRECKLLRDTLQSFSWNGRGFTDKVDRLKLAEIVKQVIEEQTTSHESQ

[6] = molecular target: Tyrosine-protein kinase Fyn (Homo sapiens, UniProt P06241)
[7] = molecular target: T3, Phosphatidylinositol 5-phosphate 4-kinase type-2 gamma (Homo sapiens, UniProt Q8TBX8)
T3 sequence (Q8TBX8 whole entry): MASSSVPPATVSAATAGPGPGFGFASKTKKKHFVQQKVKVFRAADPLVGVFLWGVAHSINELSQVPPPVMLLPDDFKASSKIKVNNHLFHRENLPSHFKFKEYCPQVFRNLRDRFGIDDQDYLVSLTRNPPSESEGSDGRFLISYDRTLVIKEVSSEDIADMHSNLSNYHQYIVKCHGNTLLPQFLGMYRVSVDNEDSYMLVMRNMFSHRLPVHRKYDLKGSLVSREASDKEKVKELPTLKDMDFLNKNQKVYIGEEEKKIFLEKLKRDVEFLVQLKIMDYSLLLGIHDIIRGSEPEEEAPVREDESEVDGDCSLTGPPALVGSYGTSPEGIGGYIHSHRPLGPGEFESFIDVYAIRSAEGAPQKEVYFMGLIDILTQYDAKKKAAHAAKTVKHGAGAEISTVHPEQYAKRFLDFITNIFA

[8] = molecular target: Guanine nucleotide-binding protein G(i) subunit alpha-2 (Homo sapiens, UniProt P04899)
[9] = molecular target: Serine/threonine-protein kinase 26 (Homo sapiens, UniProt Q9P289)
[10] = molecular target: Tyrosine-protein kinase Fer (Homo sapiens, UniProt P16591)
[11] = molecular target: T4, ADP/ATP translocase 2 (Homo sapiens, UniProt P05141)
T4 sequence (P05141 whole entry): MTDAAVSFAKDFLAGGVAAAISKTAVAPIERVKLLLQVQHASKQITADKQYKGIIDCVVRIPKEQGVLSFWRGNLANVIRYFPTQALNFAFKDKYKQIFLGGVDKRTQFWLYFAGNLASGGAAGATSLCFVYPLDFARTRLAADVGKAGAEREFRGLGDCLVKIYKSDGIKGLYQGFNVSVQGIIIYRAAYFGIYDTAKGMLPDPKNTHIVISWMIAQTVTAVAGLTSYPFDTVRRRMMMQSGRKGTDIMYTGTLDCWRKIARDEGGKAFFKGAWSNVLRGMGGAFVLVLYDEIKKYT

[12] = molecular target: Maternal embryonic leucine zipper kinase (Homo sapiens, UniProt Q14680)
[13] = molecular target: Tyrosine-protein kinase CSK (Homo sapiens, UniProt P41240)
[14] = molecular target: Aurora kinase B (Homo sapiens, UniProt Q96GD4)
Note: in the data inactive means no Kd found up to 30 µM.

Chain of Cyclin-dependent kinase 6 (Q00534 whole entry): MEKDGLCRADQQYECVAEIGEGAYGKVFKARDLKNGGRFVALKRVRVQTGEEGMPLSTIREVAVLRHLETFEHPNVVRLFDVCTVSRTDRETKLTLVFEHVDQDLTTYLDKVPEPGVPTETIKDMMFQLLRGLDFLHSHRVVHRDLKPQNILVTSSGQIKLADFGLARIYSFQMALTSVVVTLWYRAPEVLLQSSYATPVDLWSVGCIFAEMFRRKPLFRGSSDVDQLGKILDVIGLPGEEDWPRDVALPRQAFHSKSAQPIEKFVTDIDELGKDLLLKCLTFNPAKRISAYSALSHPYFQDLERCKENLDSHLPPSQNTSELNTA
Chain of Serine/threonine-protein kinase 16 (O75716 whole entry): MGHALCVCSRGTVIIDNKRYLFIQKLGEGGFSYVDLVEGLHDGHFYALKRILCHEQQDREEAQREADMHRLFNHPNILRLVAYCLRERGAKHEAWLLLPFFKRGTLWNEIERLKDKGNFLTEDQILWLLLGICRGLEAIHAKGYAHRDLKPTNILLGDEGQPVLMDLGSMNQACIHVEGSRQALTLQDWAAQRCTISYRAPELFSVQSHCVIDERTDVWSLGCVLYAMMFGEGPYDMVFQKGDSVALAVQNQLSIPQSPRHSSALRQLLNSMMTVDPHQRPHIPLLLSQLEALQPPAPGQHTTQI
Chain of Aurora kinase B (Q96GD4 whole entry): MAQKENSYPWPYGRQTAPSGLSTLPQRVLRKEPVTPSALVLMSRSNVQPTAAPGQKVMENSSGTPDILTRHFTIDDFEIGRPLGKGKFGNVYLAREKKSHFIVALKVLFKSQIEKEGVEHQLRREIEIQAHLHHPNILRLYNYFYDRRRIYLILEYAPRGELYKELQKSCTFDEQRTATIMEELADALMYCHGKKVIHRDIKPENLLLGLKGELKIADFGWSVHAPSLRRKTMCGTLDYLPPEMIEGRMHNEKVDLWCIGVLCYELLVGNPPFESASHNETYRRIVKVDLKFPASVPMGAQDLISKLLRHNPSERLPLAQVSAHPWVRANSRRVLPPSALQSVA
Chain of Tyrosine-protein kinase Fyn (P06241 whole entry): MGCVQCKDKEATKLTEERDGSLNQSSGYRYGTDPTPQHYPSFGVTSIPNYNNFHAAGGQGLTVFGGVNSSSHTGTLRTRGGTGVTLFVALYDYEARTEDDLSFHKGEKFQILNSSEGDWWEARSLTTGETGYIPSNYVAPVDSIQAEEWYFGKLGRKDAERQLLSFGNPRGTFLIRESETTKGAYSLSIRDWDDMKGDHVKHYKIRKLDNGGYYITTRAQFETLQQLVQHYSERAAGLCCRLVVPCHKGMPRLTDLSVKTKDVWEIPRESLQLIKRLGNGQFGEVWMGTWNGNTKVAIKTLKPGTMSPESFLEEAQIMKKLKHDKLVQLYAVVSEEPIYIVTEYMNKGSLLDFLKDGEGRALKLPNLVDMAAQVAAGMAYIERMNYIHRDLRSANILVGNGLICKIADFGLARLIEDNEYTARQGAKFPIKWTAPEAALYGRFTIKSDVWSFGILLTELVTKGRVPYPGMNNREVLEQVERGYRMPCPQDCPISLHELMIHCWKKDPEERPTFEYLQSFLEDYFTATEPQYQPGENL
Chain of Tyrosine-protein kinase Fer (P16591 whole entry): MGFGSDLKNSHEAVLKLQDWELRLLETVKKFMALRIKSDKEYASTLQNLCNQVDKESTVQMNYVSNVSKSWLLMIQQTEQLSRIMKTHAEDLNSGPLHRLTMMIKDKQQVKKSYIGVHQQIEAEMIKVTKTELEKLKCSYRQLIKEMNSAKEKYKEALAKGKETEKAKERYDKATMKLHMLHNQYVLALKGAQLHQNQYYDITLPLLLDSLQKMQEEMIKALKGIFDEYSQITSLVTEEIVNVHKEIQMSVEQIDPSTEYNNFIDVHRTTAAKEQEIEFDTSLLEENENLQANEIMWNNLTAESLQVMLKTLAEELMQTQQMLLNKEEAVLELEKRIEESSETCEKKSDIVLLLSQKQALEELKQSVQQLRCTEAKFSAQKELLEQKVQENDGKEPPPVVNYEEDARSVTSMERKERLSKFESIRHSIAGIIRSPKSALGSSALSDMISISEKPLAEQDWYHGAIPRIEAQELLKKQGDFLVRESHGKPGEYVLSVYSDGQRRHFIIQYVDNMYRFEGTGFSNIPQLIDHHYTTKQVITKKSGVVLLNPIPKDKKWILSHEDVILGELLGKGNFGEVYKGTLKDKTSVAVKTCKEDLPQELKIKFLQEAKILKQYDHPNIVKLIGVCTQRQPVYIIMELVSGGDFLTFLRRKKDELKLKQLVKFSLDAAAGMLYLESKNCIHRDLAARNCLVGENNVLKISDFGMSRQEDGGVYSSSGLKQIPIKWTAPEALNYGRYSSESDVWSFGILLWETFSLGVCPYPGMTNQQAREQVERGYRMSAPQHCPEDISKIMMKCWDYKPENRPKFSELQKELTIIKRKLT
Chain of Tyrosine-protein kinase CSK (P41240 whole entry): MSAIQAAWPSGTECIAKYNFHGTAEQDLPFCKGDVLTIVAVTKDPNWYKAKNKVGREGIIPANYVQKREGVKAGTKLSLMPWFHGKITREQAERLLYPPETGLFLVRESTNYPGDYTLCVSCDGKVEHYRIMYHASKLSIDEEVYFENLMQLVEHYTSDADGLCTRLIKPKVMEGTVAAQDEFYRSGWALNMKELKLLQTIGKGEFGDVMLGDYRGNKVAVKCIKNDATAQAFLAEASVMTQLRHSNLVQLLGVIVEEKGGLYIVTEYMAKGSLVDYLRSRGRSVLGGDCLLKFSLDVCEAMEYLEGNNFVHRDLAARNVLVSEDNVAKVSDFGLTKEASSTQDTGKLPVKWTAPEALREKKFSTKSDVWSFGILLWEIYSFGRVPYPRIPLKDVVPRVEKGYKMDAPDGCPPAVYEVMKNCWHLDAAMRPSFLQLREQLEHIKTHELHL
Chain of Serine/threonine-protein kinase 26 (Q9P289 whole entry): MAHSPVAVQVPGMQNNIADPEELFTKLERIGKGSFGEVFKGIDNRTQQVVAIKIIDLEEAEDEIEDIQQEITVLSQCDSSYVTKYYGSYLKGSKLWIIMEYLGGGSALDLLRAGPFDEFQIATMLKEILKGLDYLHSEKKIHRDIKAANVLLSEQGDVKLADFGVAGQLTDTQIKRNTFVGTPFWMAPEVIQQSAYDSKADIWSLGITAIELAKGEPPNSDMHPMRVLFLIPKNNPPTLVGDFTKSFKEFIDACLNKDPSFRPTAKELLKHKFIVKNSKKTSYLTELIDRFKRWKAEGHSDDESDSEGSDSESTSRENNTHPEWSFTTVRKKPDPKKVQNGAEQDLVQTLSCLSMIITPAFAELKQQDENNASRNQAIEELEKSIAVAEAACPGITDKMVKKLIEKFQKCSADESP
Chain of Guanine nucleotide-binding protein G(i) subunit alpha-2 (P04899 whole entry): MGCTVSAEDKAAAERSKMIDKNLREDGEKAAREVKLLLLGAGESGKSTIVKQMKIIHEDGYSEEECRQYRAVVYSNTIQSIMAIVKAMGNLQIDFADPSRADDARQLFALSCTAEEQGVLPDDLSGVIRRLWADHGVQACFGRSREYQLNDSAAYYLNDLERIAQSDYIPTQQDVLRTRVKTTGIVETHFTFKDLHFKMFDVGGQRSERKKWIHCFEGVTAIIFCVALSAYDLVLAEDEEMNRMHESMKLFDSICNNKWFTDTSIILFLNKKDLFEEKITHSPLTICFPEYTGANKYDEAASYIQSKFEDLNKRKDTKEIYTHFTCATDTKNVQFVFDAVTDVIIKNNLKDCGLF
Chain of Maternal embryonic leucine zipper kinase (Q14680 whole entry): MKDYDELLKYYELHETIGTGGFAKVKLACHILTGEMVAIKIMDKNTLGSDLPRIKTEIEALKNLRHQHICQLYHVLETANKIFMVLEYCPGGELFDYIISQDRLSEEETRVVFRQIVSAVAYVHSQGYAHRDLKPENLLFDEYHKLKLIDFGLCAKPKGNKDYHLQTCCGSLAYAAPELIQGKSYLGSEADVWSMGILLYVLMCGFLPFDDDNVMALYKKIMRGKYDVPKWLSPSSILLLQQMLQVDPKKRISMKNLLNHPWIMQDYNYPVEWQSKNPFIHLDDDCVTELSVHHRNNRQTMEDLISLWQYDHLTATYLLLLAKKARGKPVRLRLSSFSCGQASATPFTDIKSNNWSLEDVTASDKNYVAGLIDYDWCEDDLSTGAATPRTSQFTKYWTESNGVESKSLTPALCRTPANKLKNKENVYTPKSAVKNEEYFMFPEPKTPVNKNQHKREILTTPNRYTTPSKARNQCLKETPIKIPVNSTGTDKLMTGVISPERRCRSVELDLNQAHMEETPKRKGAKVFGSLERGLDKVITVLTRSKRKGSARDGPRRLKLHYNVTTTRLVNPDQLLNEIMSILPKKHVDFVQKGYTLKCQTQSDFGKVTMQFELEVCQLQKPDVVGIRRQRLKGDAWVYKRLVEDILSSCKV

C[C@@H](Oc1cc(C(=O)Nc2ccc(C(=O)N3CCN(C)CC3)cc2)nnc1N)c1c(Cl)ccc(F)c1Cl
Kd [1]: > 30 µM (inactive) | Kd [2]: > 30 µM (inactive) | Kd [3]: > 30 µM (inactive) | Kd [4]: > 30 µM (inactive) | Kd [5]: > 30 µM (inactive) | Kd [6]: > 30 µM (inactive) | Kd [7]: > 30 µM (inactive) | Kd [8]: > 30 µM (inactive) | Kd [9]: > 30 µM (inactive) | Kd [10]: > 30 µM (inactive) | Kd [11]: > 30 µM (inactive) | Kd [12]: > 30 µM (inactive) | Kd [13]: > 30 µM (inactive) | Kd [14]: > 30 µM (inactive)

C[C@H]1CNCCCN1S(=O)(=O)c1cccc2cncc(F)c12
Kd [1]: > 30 µM (inactive) | Kd [2]: > 30 µM (inactive) | Kd [3]: > 30 µM (inactive) | Kd [4]: > 30 µM (inactive) | Kd [6]: > 30 µM (inactive) | Kd [7]: > 30 µM (inactive) | Kd [8]: > 30 µM (inactive) | Kd [9]: > 30 µM (inactive) | Kd [10]: > 30 µM (inactive) | Kd [11]: > 30 µM (inactive) | Kd [12]: > 30 µM (inactive) | Kd [13]: > 30 µM (inactive) | Kd [14]: 1.15 µM (active)

CCNC(=O)C#Cc1ccc2c(c1)NC(=O)/C2=C(\Nc1ccc(CN(C)C)cc1)c1ccccc1
Kd [1]: > 30 µM (inactive) | Kd [2]: > 30 µM (inactive) | Kd [3]: 2.97 µM (active) | Kd [4]: > 30 µM (inactive) | Kd [6]: 0.187 µM (active) | Kd [7]: > 30 µM (inactive) | Kd [8]: > 30 µM (inactive) | Kd [9]: > 30 µM (inactive) | Kd [10]: 0.385 µM (active) | Kd [11]: > 30 µM (inactive) | Kd [12]: 0.918 µM (active) | Kd [13]: > 30 µM (inactive) | Kd [14]: 0.059 µM (active)

Cc1nc2cc(-c3nn(C(C)C)c4ncnc(N)c34)ccc2o1
Kd [1]: > 30 µM (inactive) | Kd [2]: 2.01 µM (active) | Kd [3]: > 30 µM (inactive) | Kd [4]: > 30 µM (inactive) | Kd [5]: > 30 µM (inactive) | Kd [6]: > 30 µM (inactive) | Kd [7]: > 30 µM (inactive) | Kd [8]: > 30 µM (inactive) | Kd [9]: 2.19 µM (active) | Kd [10]: > 30 µM (inactive) | Kd [11]: > 30 µM (inactive) | Kd [12]: 8.21 µM (active) | Kd [13]: > 30 µM (inactive) | Kd [14]: > 30 µM (inactive)

Nc1ncnc2c1c(-c1cccc(OCc3ccccc3)c1)cn2[C@H]1C[C@@H](CN2CCC2)C1 [AEW-541]
Kd [1]: > 30 µM (inactive) | Kd [2]: > 30 µM (inactive) | Kd [3]: > 30 µM (inactive) | Kd [4]: > 30 µM (inactive) | Kd [5]: > 30 µM (inactive) | Kd [6]: > 30 µM (inactive) | Kd [7]: > 30 µM (inactive) | Kd [8]: > 30 µM (inactive) | Kd [9]: > 30 µM (inactive) | Kd [10]: > 30 µM (inactive) | Kd [11]: > 30 µM (inactive) | Kd [12]: > 30 µM (inactive) | Kd [13]: > 30 µM (inactive) | Kd [14]: > 30 µM (inactive)

Cc1nc(NC(=O)N2CCC[C@H]2C(N)=O)sc1-c1ccnc(C(C)(C)C(F)(F)F)c1 [ALPELISIB]
Kd [1]: > 30 µM (inactive) | Kd [2]: > 30 µM (inactive) | Kd [3]: > 30 µM (inactive) | Kd [4]: > 30 µM (inactive) | Kd [5]: > 30 µM (inactive) | Kd [6]: > 30 µM (inactive) | Kd [8]: > 30 µM (inactive) | Kd [9]: > 30 µM (inactive) | Kd [10]: > 30 µM (inactive) | Kd [11]: > 30 µM (inactive) | Kd [12]: > 30 µM (inactive) | Kd [13]: > 30 µM (inactive) | Kd [14]: > 30 µM (inactive)

Cc1csc(-c2nnc(Nc3ccc(Oc4ncccc4-c4ccnc(N)n4)cc3)c3ccccc23)c1 [AMG-900]
Kd [1]: > 30 µM (inactive) | Kd [2]: > 30 µM (inactive) | Kd [3]: > 30 µM (inactive) | Kd [4]: > 30 µM (inactive) | Kd [5]: > 30 µM (inactive) | Kd [6]: > 30 µM (inactive) | Kd [8]: > 30 µM (inactive) | Kd [9]: 3.02 µM (active) | Kd [10]: > 30 µM (inactive) | Kd [11]: > 30 µM (inactive) | Kd [12]: > 30 µM (inactive) | Kd [13]: > 30 µM (inactive) | Kd [14]: 0.02 µM (active)

C=CC(=O)Nc1cc2c(Nc3ccc(F)c(Cl)c3)ncnc2cc1C#CC(C)(C)N1CCN(C)CC1 [AV-412 FREE BASE]
Kd [1]: > 30 µM (inactive) | Kd [2]: > 30 µM (inactive) | Kd [3]: > 30 µM (inactive) | Kd [4]: > 30 µM (inactive) | Kd [5]: > 30 µM (inactive) | Kd [6]: > 30 µM (inactive) | Kd [7]: > 30 µM (inactive) | Kd [8]: > 30 µM (inactive) | Kd [9]: > 30 µM (inactive) | Kd [10]: > 30 µM (inactive) | Kd [11]: > 30 µM (inactive) | Kd [12]: > 30 µM (inactive) | Kd [13]: > 30 µM (inactive) | Kd [14]: > 30 µM (inactive)

NC(=O)Nc1cc(-c2cccc(F)c2)sc1C(=O)N[C@H]1CCCNC1 [AZD-7762]
Kd [1]: > 30 µM (inactive) | Kd [2]: > 30 µM (inactive) | Kd [3]: > 30 µM (inactive) | Kd [4]: > 30 µM (inactive) | Kd [5]: > 30 µM (inactive) | Kd [6]: 0.284 µM (active) | Kd [7]: > 30 µM (inactive) | Kd [8]: > 30 µM (inactive) | Kd [9]: > 30 µM (inactive) | Kd [11]: > 30 µM (inactive) | Kd [12]: 4.53 µM (active) | Kd [14]: 0.715 µM (active)

O=C(Nc1cc(C(F)(F)F)cc(C(F)(F)F)c1)c1cc(Cl)ccc1O [IMD-0354]
Kd [1]: > 30 µM (inactive) | Kd [2]: > 30 µM (inactive) | Kd [3]: > 30 µM (inactive) | Kd [5]: > 30 µM (inactive) | Kd [6]: > 30 µM (inactive) | Kd [7]: > 30 µM (inactive) | Kd [8]: > 30 µM (inactive) | Kd [9]: > 30 µM (inactive) | Kd [10]: > 30 µM (inactive) | Kd [11]: > 30 µM (inactive) | Kd [12]: > 30 µM (inactive) | Kd [13]: > 30 µM (inactive) | Kd [14]: > 30 µM (inactive)

CNC(=O)c1nn(C)c2c1C(C)(C)Cc1cnc(Nc3ccc(N4CCN(C)CC4)cc3)nc1-2 [MILCICLIB]
Kd [1]: > 30 µM (inactive) | Kd [2]: 1.1 µM (active) | Kd [3]: 1.72 µM (active) | Kd [4]: > 30 µM (inactive) | Kd [5]: > 30 µM (inactive) | Kd [6]: 1.44 µM (active) | Kd [7]: 1.43 µM (active) | Kd [8]: > 30 µM (inactive) | Kd [9]: > 30 µM (inactive) | Kd [10]: > 30 µM (inactive) | Kd [11]: > 30 µM (inactive) | Kd [13]: > 30 µM (inactive) | Kd [14]: 7.54 µM

CCS(=O)(=O)c1cccc(-c2cc(C(=O)NC3CCN(C)CC3)c(C)c3[nH]c4ncc(C)cc4c23)c1 [TAK-901]
Kd [1]: > 30 µM (inactive) | Kd [2]: 0.849 µM (active) | Kd [3]: > 30 µM (inactive) | Kd [4]: > 30 µM (inactive) | Kd [5]: > 30 µM (inactive) | Kd [6]: 0.095 µM (active) | Kd [7]: > 30 µM (inactive) | Kd [8]: > 30 µM (inactive) | Kd [9]: > 30 µM (inactive) | Kd [10]: 0.574 µM (active) | Kd [11]: > 30 µM (inactive) | Kd [13]: > 30 µM (inactive) | Kd [14]: 0.044 µM (active)

Cn1ncc(Cl)c1-c1cc(C(=O)N[C@H](CN)Cc2ccc(F)c(F)c2)oc1Cl [UPROSERTIB]
Kd [1]: > 30 µM (inactive) | Kd [2]: > 30 µM (inactive) | Kd [3]: > 30 µM (inactive) | Kd [4]: > 30 µM (inactive) | Kd [5]: > 30 µM (inactive) | Kd [6]: > 30 µM (inactive) | Kd [7]: > 30 µM (inactive) | Kd [8]: > 30 µM (inactive) | Kd [10]: > 30 µM (inactive) | Kd [11]: > 30 µM (inactive) | Kd [12]: 0.24 µM | Kd [13]: > 30 µM (inactive) | Kd [14]: > 30 µM (inactive)
